Experimental data reported in US4137322A, “ML-236B carboxylic acid derivatives and their use as antihyperlipemic agents” (Sankyo Company Limited, priority 1976, dated 1979).
Structures can show the parent of a compound that is named as a salt.

How the values were obtained:
[1] = system: Rat; assay: Acute toxicity in rat; conditions: aqueous suspension
Experimental: (§1) Acute toxicity of ML-236B carboxylic acid derivatives (I) was determined in oral and intraperitoneal administration (both as an aqueous suspension).

[2] = Acute toxicity in rat; conditions: in vivo, ip, LD50, rat, aqueous suspension
Experimental: as §1

[3] = system: Mouse; assay: Acute toxicity in mouse; conditions: aqueous suspension
Experimental: as §1

[4] = Acute toxicity in mouse; conditions: in vivo, ip, LD50, mouse, aqueous suspension
Experimental: as §1

[5] = system: cholesterol biosynthesis; assay: Inhibition of cholesterol biosynthesis; format: biochemical
[6] = system: serum cholesterol in rats; assay: Lowering activity of blood cholesterol in rats; format: in vivo, rat; conditions: rats, oral, after 18 hours
Experimental: A lowering activity of blood cholesterol in rats was assayed on rats. The test was to orally administer a test sample suspended in water, collect a blood sample after 18 hours and determine a cholesterol level in serum by a conventional method.

[7] = target: T1, 3-hydroxy-3-methylglutaryl-CoA reductase (Rattus norvegicus, UniProt P51639); assay: Inhibition of 3-hydroxy-3-methylglutaryl-CoA reductase; format: biochemical; conditions: enzyme: microsome of rat liver; read-out: Concentration to inhibit 50% of 3-hydroxy-3-methylglutaryl-CoA reductase (converted)
T1 construct: Employed as an enzyme microsome of rat liver; from tissue; host or cells: rat liver microsomes
T1 sequence (P51639 1-887): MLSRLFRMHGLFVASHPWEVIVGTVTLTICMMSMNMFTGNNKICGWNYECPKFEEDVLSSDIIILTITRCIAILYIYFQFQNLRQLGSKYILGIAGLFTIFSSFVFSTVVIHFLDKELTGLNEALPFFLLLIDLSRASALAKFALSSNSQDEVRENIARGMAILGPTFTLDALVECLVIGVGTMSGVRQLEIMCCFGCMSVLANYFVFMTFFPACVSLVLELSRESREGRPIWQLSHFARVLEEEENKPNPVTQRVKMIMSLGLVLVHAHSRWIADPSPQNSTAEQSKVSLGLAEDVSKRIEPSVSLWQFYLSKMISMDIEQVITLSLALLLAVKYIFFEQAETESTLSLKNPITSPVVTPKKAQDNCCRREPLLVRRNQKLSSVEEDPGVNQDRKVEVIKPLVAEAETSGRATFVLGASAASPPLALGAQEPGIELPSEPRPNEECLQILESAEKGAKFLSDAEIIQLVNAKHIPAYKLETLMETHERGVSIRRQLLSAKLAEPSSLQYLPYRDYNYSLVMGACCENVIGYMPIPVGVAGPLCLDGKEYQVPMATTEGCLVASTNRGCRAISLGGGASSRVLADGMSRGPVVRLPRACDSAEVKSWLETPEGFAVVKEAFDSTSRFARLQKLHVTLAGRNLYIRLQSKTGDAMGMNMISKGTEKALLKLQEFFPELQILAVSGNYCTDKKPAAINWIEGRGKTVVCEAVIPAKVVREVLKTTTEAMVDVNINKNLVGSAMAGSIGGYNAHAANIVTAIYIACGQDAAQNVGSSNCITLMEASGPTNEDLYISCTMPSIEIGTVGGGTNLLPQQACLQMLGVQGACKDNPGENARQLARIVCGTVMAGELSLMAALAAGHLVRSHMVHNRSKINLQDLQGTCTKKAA
Description: Inhibition activity of cholesterol biosynthesis [determined according to the method disclosed in J. Biol. Chem., 234, 2835 (1959)] and inhibition activity on 3-hydroxy-3-methylglutaryl-CoA reductase [determined according to the method disclosed in Anal. Biochem., 31, 383 (1969)] of these compounds are summarized in Table 1.
*Employed as an enzyme microsome of rat liver.

[8] = system: total serum cholesterol in beagle dogs; assay: Lowering activity of blood cholesterol in beagle dogs; format: in vivo, beagle dog; conditions: beagle dogs, oral twice per day, 5 days
Description: The test was to orally administer an encapsulated test sample twice per day, in the morning (9 o'clock) and evening (16 o'clock), for continuous 5 days, collect a blood sample in the morning after 5 days and determine a total cholesterol level in serum by a conventional method.

[9] = p.o., listed as ML-236B Na salt

SMILES	LD50 [1, 9]	LD50 [2] [mg/kg]	LD50 [3, 9]	LD50 [4] [mg/kg]	Concentration to inhibit 50% of cholesterol biosynthesis [5] [µg/mL]	inhibition in vivo at 5 mg/kg ([6]; Rattus norvegicus, po, 18 h, 5 mg/kg, read-out: Lowering rate of serum cholesterol) [%]	inhibition in vivo at 20 mg/kg ([6]; Rattus norvegicus, po, 18 h, 20 mg/kg, read-out: Lowering rate of serum cholesterol) [%]	IC50 [7] [nM]	inhibition in vivo at 25 mg/kg/day ([8]; Canis lupus familiaris, po, 120 h, 25 mg/kg/day, read-out: Lowering rate of total serum cholesterol) [%]	inhibition in vivo at 100 mg/kg/day ([8]; Canis lupus familiaris, po, 120 h, 100 mg/kg/day, read-out: Lowering rate of total serum cholesterol) [%]	LD50 ([1]; i.p.) [mg/kg]	LD50 ([1]; p.o.)	LD50 ([3]; i.p.) [mg/kg]	LD50 ([3]; p.o.)	Lowering rate of serum cholesterol ([6]; 5 mg/kg, 5 mg/kg) [%]	Lowering rate of serum cholesterol ([6]; 20 mg/kg, 20 mg/kg) [%]	Lowering rate of total serum cholesterol ([8]; 25 mg/kg/day) [%]	Lowering rate of total serum cholesterol ([8]; 100 mg/kg/day) [%]
CCC(C)C(=O)OC1CCC=C2C=CC(C)C(CCC(O)CC(O)CC(=O)O)C21 (centres unmarked) [Na, Sodium ML-236B carboxylate]	> 2,000 mg/kg	> 500	> 2,000 mg/kg	> 500	0.006	20.6	23.1	392	24	47								
CCC(C)C(=O)OC1CCC=C2C=CC(C)C(CCC(O)CC(O)CC(=O)O)C21 (centres unmarked) [Arginine, Arginine salt of ML-236B carboxylic acid]					0.007			441			> 500	> 5,000 mg/kg	> 500	> 5,000 mg/kg	19.6	24.1	26	45
CCC(C)C(=O)OC1CCC=C2C=CC(C)C(CCC(O)CC(O)CC(=O)O)C21 (centres unmarked) [Lysine, Lysine salt of ML-236B carboxylic acid]					0.006						> 500	> 5,000 mg/kg	> 500	> 5,000 mg/kg	16.9	23.8	24	44
